In brackets after ≈: the same amount, converted by molar mass. Where two headings read alike, the source gives them in different places. One block for each compound: values may come before it.
Legend:
p-AKT in HT-29 cells = assay: Western blot of phosphorylated AKT; assay type: cell-based, human; conditions: 24 h; 10 and 20 μg/mL for 1, 2, 5, 6, 7, 8; 30 and 60 μg/mL for 3 and 4
Experimental: (§1) Cells were cultured to 80% confluence at 37 °C. After 24 h of treatment with the compounds (10 and 20 µg/mL for compounds 1, 2, 5, 6, 7, and 8, and 30 and 60 µg/mL for compounds 3 and 4), HT-29 cells were rinsed twice with ice-cold PBS, and then lysed immediately in lysis buffer (250 mM NaCl, 50 mM Tris (pH 7.5), 0.5 mM EDTA, 5 mM EGTA, 8 mM MgCl2, 1 mM PMSF, 0.01 mg/mL pepstatin A, 0.01 mg/mL leupeptin, 0.01 mg/mL aprotinin, 1% Triton X-100). After centrifugation at 12,000 g for 3 min at 4°C to separate the cellular debris, the supernatant was collected and stored at −80°C until use. The protein concentrations were determined using Bio-Rad Protein Assay (BioRad, Richmond, CA, USA), according to the manufacturer’s instructions.
(§2) Equal protein content (50 μg) samples of cell lysates were separated on 10% SDS–polyacrylamide gel and transferred to polyvinylidene difluoride membranes (Hybond-P, Amershan Biosciences, Little Chalfont, UK). The membranes were blocked with 5% (w/v) non-fat dry milk in Tris-buffered saline containing 0.1% Tween-20 buffer (pH 7.4) (TBST) for 1 h at room temperature and incubated with agitation with specific antibodies: anti-pERK1/2 (Cell Signaling; 1:1000), anti-pJNK (Cell Signaling; 1:1000), anti-pAKT (Cell Signaling; 1:1000), anti-β-actin (Sigma-Aldrich; 1:500). Membranes were incubated overnight at 4°C with gentle shaking. The secondary antibody was a peroxidase-conjugated goat anti-mouse or -rabbit antibody (1:10,000; DakoCytomation, Carpinteria, CA, USA). After washing the membrane three times in TBST buffer (10 min), the signals were detected using an enhanced chemiluminescence light-detecting kit (Super-Signal West Pico Chemiluminescent Substrate, Pierce, IL, USA), according to the manufacturer’s instructions and exposed to an X-ray film (GE Healthcare Ltd., Amersham, UK). The protein band densities were analyzed and quantified with a Scientific Imaging Systems (Biophotonics ImageJ Analysis Software, National Institute of Mental Health, Bethesda, MD, USA). β-actin was used to confirm the equal loading and transfer of proteins.

HT-29 colon cancer cells [1] = assay: Annexin V-FITC/PI flow cytometry apoptosis induction assay; assay type: cell-based, human; conditions: 24 h; for necrosis (dead cells): 30 μg/mL
Experimental: Quantitative assessment of apoptosis was performed by flow cytometry using an Annexin V-FITC Apoptosis Detection Kit. Briefly, 1 × 10^6 HT-29 cells were seeded per well in six-well plates and incubated for 24 h, followed by the addition of the AMTs dissolved in DMSO (final concentrations of 10, 20, and 30 µg/mL for compounds 1, 2, 5, 6, 7, and 8, and 30, 60, and 90 µg/mL for compounds 3 and 4, and less than 0.05% DMSO) and incubation for 24 h. Curcumin (final concentrations of 50 and 75 μM) was used as positive control. The cells were then washed, harvested with trypsin, and centrifuged at 1500 rpm (5 min, 25 °C). The pellet was resuspended in 195 µL of 1 × Annexin buffer and then stained with 5 μL of Annexin V-FITC and 10 μL of PI for 10 min at room temperature, in the dark. To this mixture 200 μL of 1 × Annexin buffer was added before analysis using a Cytomics FC500 flow cytometer (Beckman Coulter, Indianapolis, IN, USA). Following a gating strategy, flow cytometry plots of size (FS) and complexity (SS) of the HT-29 cells were previously established for the elaboration of a measurement protocol. The normal healthy cells, early apoptosis, late apoptosis, and necrotic populations were represented by annexin V-negative/PI-negative population, annexin V-positive/PI-negative, annexin V-positive/PI-positive and annexin-negative/PI-positive cells, respectively. A total of 10,000 cellular events in each sample were analyzed using DML program.

[2] = test system: HT-29 human colon carcinoma cells; assay: Sulforhodamine B (SRB) cell viability assay, HT-29; assay type: cell-based; conditions: for IC50: Homo sapiens, HT-29, 72 h; for Selectivity Index (SI): IC50 for normal cells CCD 841 CoN / IC50 for cancer cells HT-29
Experimental: (§3) Cell viability was quantified using the Sulforhodamine B assay described by Skehan et al.. Cells were plated with a density of 5 × 10^3 (HT-29) and 1 × 10^4 (CCD 841 CoN) cells/well and allowed to attach at 37 °C in an atmosphere with 5% CO2. After 24 h, the AMTs dissolved in DMSO were added to the cells (final concentrations of 10, 20, 30, and 50 µg/mL and less than 0.05% of DMSO) and the plates were incubated for 72 h. Then, the cells were fixed by adding 50 μL of TCA (50%) to each well and the plates were maintained for 1 h at 4 °C. The plates were washed five times with deionized water, air-dried, and stained for 30 min at room temperature with 100 μL of 0.4% (w/v) SRB prepared in 1% (v/v) acetic acid. The plates were rinsed quickly five times with 1% acetic acid to remove unbound dye, followed by air-drying. The bound dye was solubilized in 2 mM Tris base (100 μL/well) for 5 min. Optical densities were read on a microplate reader (Spectrophotometer LabsystemsMultiskan EX, λ 492 nm). Three independent assays were conducted, each one in duplicate. A standard curve was constructed for each experiment and used for converting the measured optical density values into numbers of viable cells/well. The inhibition rate was used to evaluate the cell viability and its algorithm was the following formula: ((ODcontrol − ODtreatment)/ODcontrol) × 100; OD, optical density. The OD492 for control cells was taken as 100% viability. The half maximal inhibitory concentration (IC50) was calculated. The selectivity index (SI) of each compound was calculated as IC50 of the compound against the CCD 841 CoN normal cell line/IC50 of the same compound against the HT-29 cancer cell line.

HT-29 cells [3] = assay: Wound migration assay; assay type: cell-based, human; conditions: 24 h, wound-healing; for inhibition at 10 µg/mL: Homo sapiens, HT-29, 10 μg/mL, read-out: inhibition of cell migration
Experimental: For cell migration assay, HT-29 cells were seeded in six-well culture plates and allowed to grow to 80%–90% confluence for the experiment. After aspirating the medium, similar sized wounds were performed in the monolayer cells using a sterile micropipette tip. Wounded monolayer cells were washed three times with PBS to remove cell debris and then replaced with complete McCoy’s medium. HT-29 cells were treated with the AMTs (10 µg/mL for compounds 1, 2, 5, 6, 7, and 8, and 30 µg/mL for compounds 3 and 4) and incubated for 24h. For the image analysis of the effect of each treatment on cell migration, the wounded area was photographed immediately after scratching and after 24 h. The level of cell migration was determined using NIH Image software (Image J 1.44g, Wayne Rasband, USA) and then expressed as a percentage of wound closure area using the equation: Migration rate (%) = [(wound area at 0 h − wound area at 24 h)/wound area at 0 h] × 100%.

p-JNK in HT-29 cells = assay: Western blot of phosphorylated JNK; assay type: cell-based, human; conditions: 24 h; 10 and 20 μg/mL for 1, 2, 5, 6, 7, 8; 30 and 60 μg/mL for 3 and 4
Experimental: as §1, §2

HT-29 colon cancer cells [4] = assay: Cell cycle analysis by flow cytometry (PI); assay type: cell-based, human; conditions: 24 h; 30 μg/mL of 1, 2, 5, 6, 7, 8 and 90 μg/mL of 3 and 4 (Figure 4B)
Experimental: HT-29 cells (1 × 10^6 cells/well) were seeded in six-well plates and incubated for 24 h, followed by treatment with AMTs dissolved in DMSO (final concentrations of 10, 20, and 30 µg/mL for compounds 1, 2, 5, 6, 7, and 8, and 30, 60, and 90 µg/mL for compounds 3 and 4, and always below 0.05% DMSO) and 24 h of additional incubation. Colchicine (final concentration of 0.2 μg/mL) was used as positive control. The cells were then washed, harvested with trypsin, and centrifuged at 1500 rpm (5 min, 25 °C). The resulting pellet was fixed with ice-cold 70% ethanol (1 mL/10^6 cells) and the samples were stored at −4°C overnight. After fixation, the cells were washed with PBS, stained with PBS containing 5 mg/mL of RNase A, and incubated for 48 h at 4 °C. Subsequently, 50 μL of 0.1 mg/mL of IP was added and incubated for 1 h at 4 °C. The relative DNA content per cell was analyzed using a Cytomics FC500 flow cytometer (Beckman Coulter, Indianapolis, IN, USA). The data acquisition was performed with the DML program and the analysis of the acquired data with the CXP Software (Beckman Coulter, Indianapolis, IN, USA).

[5] = test system: normal human colonic epithelial cells CCD 841 CoN; assay: Sulforhodamine B (SRB) cell viability assay, CCD 841 CoN; assay type: cell-based; conditions: normal colon cells, 72 h of treatment, mean ± SE of three experiments, read-out: IC50 CCD841 CoN
Experimental: as §3

p-ERK1/2 in HT-29 cells = assay: Western blot of phosphorylated ERK1/2; assay type: cell-based, human; conditions: 24 h; 10 and 20 μg/mL
Experimental: as §1, §2

HT-29 cells [6] = conditions: cited from earlier work
[7] = colon cancer cells, 72 h of treatment, SRB, mean ± SE of three experiments

Compound: COc1c(C)cc(O)cc1C/C=C(\C)CC(=O)/C=C(/C)CCCC(C)=O [Compound 4, cystomexicone A]
- expression of p-AKT protein vs control (p-AKT in HT-29 cells): significantly downregulated
- induction of apoptosis or death of HT-29 cells (HT-29 colon cancer cells [1]; 4 tested at 30-90 μg/mL, 7 at 10-30 μg/mL): did not induce neither apoptosis nor death
- IC50 [2, 7]: 34.3 µg/mL (≈ 95.7 µM)
- Selectivity Index (SI) [2]: 1.68
- IC50 HT-29 [2, 7]: 36.86 ± 2.86 µg/mL (≈ 103 µM)
- inhibition of cell migration (HT-29 cells [3]; 30 μg/mL (methods, Figure 5B)): no significant effects
- phospho-JNK level vs control (p-JNK in HT-29 cells): decreased phosphorylation
- accumulation of cells at the G2/M phase (cell cycle arrest, words) (HT-29 colon cancer cells [4]): significant
- IC50 [5]: 61.9 ± 2.37 µg/mL (≈ 173 µM)

Compound: sargachromanol R
- IC50 growth of HT-29 cells (HT-29 cells [6]): 3.4 µg/mL

Compound: zonaquinone acetate
- IC50 (HT-29 cells [6]; read-out: IC50 growth of HT-29 cells): 17.3 µM
- IC50 growth of HT-29 cells (HT-29 cells [6]; value in brackets, converted from μM): 7.8 µg/mL

More lines, main results first:

- IC50 [2, 7]: 7.83 ± 0.05 µg/mL (≈ 17.1 µM)
Compound: COc1c(C)cc(O)cc1C/C=C(\C)CC(=O)/C=C(/C)CCCC(C)C(=O)/C=C/C(C)(C)O (stereo not drawn) [Compound 5, 6-cis-amentadione-1′-methyl ether]
- expression of p-AKT protein vs control (p-AKT in HT-29 cells): no significant reduction
- necrosis (dead cells) (HT-29 colon cancer cells [1]): 72.75%
- Selectivity Index (SI) [2]: 5.23
- inhibition at 10 µg/mL (HT-29 cells [3]): 36.2%
- phospho-JNK level vs control (p-JNK in HT-29 cells): decreased phosphorylation
- accumulation of cells at the G2/M phase (cell cycle arrest, words) (HT-29 colon cancer cells [4]): significant
- p-ERK1/2 level vs control (p-ERK1/2 in HT-29 cells): significantly reduced
- IC50 [5]: 41 ± 9.8 µg/mL (≈ 89.7 µM)

- IC50 [2, 7]: 10.7 ± 0.27 µg/mL (≈ 23.5 µM)
Compound: COc1c(C)cc(O)cc1C/C=C(\C)CC(=O)/C=C(\C)CCCC(C)C(=O)/C=C/C(C)(C)O (centres unmarked) [Compound 6, amentadione-1′-methyl ether]
- expression of p-AKT protein vs control (p-AKT in HT-29 cells): no significant reduction
- necrosis (dead cells) (HT-29 colon cancer cells [1]): 59.55%
- Selectivity Index (SI) [2]: 4.51
- inhibition at 10 µg/mL (HT-29 cells [3]): 45.3%
- accumulation of cells at the G2/M phase (cell cycle arrest, words) (HT-29 colon cancer cells [4]): not significant
- p-ERK1/2 level vs control (p-ERK1/2 in HT-29 cells): significantly reduced
- IC50 [5]: 48.4 ± 3.84 µg/mL (≈ 106 µM)

Reference: paper PMC7143549, “Anticancer Activities of Meroterpenoids Isolated from the Brown Alga Cystoseira usneoides against the Human Colon Cancer Cells HT-29” (Foods, 2020)
